“Also recorded” adds a separate entry of the source. Like-named read-outs stand apart in the source and are kept apart here. No end group written: not given here.
What was measured:
HUVECs [1] = assay: HUVEC proliferation, MTS assay; type: cell-based, human; details: for cell viability reduced: 100 μM, compared to untreated control, 5% FBS and 10 ng/ml bFGF; for inhibition of growth of endothelial cells: 5% FBS and bFGF stimulated
Protocol: Cell proliferation was measured by MTS assay. HUVECs were seeded to gelatin-coated 96-well plate at 1,000 cells/well and incubated in M199 supplement media for 48 h. After 48 h, cells were incubated in serum free M199 medium for 4 h, and then treated with each peptide at indicated concentrations for 30 min. Then, the cells were stimulated with 5% FBS and 10 ng/ml bFGF, and were incubated for 48 or 72 hr. Then, assessment of cell proliferation was done by MTS assay.

HUVECs [2] = assay: endothelial cell migration assay, modified Boyden chamber, VEGF-induced; type: cell-based, human; details: for cell migration reduced: VEGF-induced, compared to untreated control; for inhibition of VEGF-induced migration of endothelial cells: 0.1˜100 μM
Protocol: In order to evaluate the effect of the peptides of the present invention on the cell migration, the present inventors conducted cell migration assay using modified Boyden chamber. HUVECs were treated with each peptide for 30 min and then, the cells were allowed to migrate toward VEGF (2˜5 ng/ml). After 5 h, the migrated cells were fixed and stained with hematoxilin and eosin. The stained cells were photographed and counted.

[3] = system: MDAMB231 breast cancer cells; assay: cancer cell migration, modified Boyden chamber assay, EGF-induced; type: cell-based, human
Protocol: In order to investigate the effect of the respective peptides on cancer cell migration, modified Boyden chamber assay was conducted. MDAMB231 breast cancer cells have EGF receptor and have ability to migrate and metastasize. […] The above results also support that the peptides of the present invention can inhibit cancer cell metastasis.

[4] = system: A549 lung cancer cell line; type: cell-based, human; details: 48 hr, 5% FBS
Protocol: The Effect of the peptides on cancer cell proliferation was investigated using A549 lung cancer cell line. A549 cells were seeded to 96 well plate at 1,000 cells/well and incubated in DMEM medium containing 10% FBS for 48 h. After treatment of each peptide for 30 min, the proliferation of cancer cells was stimulated by 5% FBS alone. After each incubation time, MTS solution was added to each well and incubated for 2 h. Assessment of proliferation was determined by measurement of absorbance at 490 nm.

HUVECs [5] = assay: tube formation assay on Matrigel; type: cell-based, human; details: 100 μM; for tube formation inhibited/decreased: compared to control group, tube lengths
Protocol: Chilled Matrigel (150 μl, BD Bioscience) was placed in a pre-chilled 48-well plate and incubated for 30 min at 37° C. HUVECs were treated with each peptide for 30 min and then added to the top of the solidified Matrigel. After 19 h of incubation, the tubes formed were photographed. Images were analyzed using Image J <http://rsb.info.nih.gov/ij/> to determine tube lengths.
That is, the incubated HUVEC with a new serum-free medium was incubated for 2˜4 hr and harvested the cells. After treating the harvested cells at 100 μM with the respective peptides for 30 min, the cells on the hardened Matrigel was incubated for 11˜19 hr, while observing the degree of tube formation, and measured and calculated the lengths of the tubes formed. As a result, it was observed that all the tested peptides, while varying degrees, inhibited tube formation. […] UP3 decreased tube formation by 47%, and TP1 by approximately 37%.

in vivo angiogenesis = assay: in vivo Matrigel plug assay, hemoglobin by Drabkin's reagent; design: species or system C57/BL6 mice; details: for plugs with excessive amount of hemoglobin exceeding 500 mg/dl / hemoglobin amount of Matrigel plug, median: 7 days; for hemoglobin amount / in vivo angiogenesis inhibition (words): compared to control group; for hemoglobin amount of Matrigel plug, median: mice, subcutaneous Matrigel with bFGF, VEGF, heparin and peptide
Protocol: In order to examine the anti-angiogenic activity of the respective peptides in vivo, Matrigel plug assay was performed. 7-week-old C57/BL6 mice (SLC, Japan) were injected subcutaneously in the midventral abdominal region with 0.6 ml of Matrigel containing the bFGF (100 ng/ml), VEGF (100 ng/ml) and heparin (15 unit) with or without peptide. After 7 days, mice were sacrificed by inhalation of CO2 gas and the Matrigel plugs were removed and photographed. To evaluate the formation of vessels, the amount of hemoglobin was quantified using Drabkin's reagent (Sigma). The Matrigel plug was sonicated in RBC lysis buffer (Sigma) and centrifuged at 14000 rpm for 20 min. The supernatant was mixed with Drabkin's reagent and incubated for 3 min. Then, absorbance was measured at 540 nm.

[6] = 100 μM, compared to untreated control

Compound	cell viability reduced (HUVECs [1])	inhibition of growth of endothelial cells (HUVECs [1])	inhibition of migration of breast cancer cell [3]	cell migration decreased [3, 6] [%]	inhibition of proliferation of A549 cancer cells (words) [4]	tube formation inhibited/decreased (HUVECs [5])	plugs with excessive amount of hemoglobin exceeding 500 mg/dl (in vivo angiogenesis)	cell migration reduced (HUVECs [2]; 100 μM)	inhibition of VEGF-induced migration of endothelial cells (HUVECs [2])	hemoglobin amount / in vivo angiogenesis inhibition (words) (in vivo angiogenesis)	hemoglobin amount of Matrigel plug, median (in vivo angiogenesis) [mg/dL]	further results
PWNSMILIGKVYTAQ [TP3, PWNSMILIGKVYTAQ]	approximately 26.7%	inhibited growth of endothelial cells	concentration-dependently inhibited the migration	~69.4	concentration-dependently inhibited proliferation	approximately 70%	showed such plugs with excessive hemoglobin	–	–	–	–	cell migration reduced (HUVECs [2]; 0.1 μM): 15.4%; cell migration decreased ([3]; 1 μM, compared to untreated control): ~30%; inhibition of proliferation of A549 cancer cells (words) ([4]; listed as TP-3): inhibited proliferation of cancer cells concentration-dependently
PWCYVQVGLKPLVQE [UP7, PWCYVQVGLKPLVQE]	69.6%	inhibited growth of endothelial cells; also recorded: strong inhibition effect	concentration-dependently inhibited the migration; also recorded: most potent inhibitory effect	88	concentration-dependently inhibited proliferation	–	did not exhibit such plugs	approximately 72%	concentration-dependently inhibited	remarkably reduced hemoglobin amount	16.3	cell migration decreased ([3]; 10 μM): approximately 66%; inhibition of proliferation of A549 cancer cells (words) ([4]; listed as UP-7): inhibited proliferation of cancer cells concentration-dependently; inhibition of tube formation (HUVECs [5]): did not show any inhibitory effect; hemoglobin amount / in vivo angiogenesis inhibition (words) (in vivo angiogenesis; listed as UP-7): decreased amount of hemoglobin; also recorded: most potent inhibitory activity against in vivo angiogenesis
CC(C)C[C@H](NC(=O)[C@@H](NC(=O)[C@@H](NC(=O)[C@H](C)NC(=O)[C@H](CO)NC(=O)[C@H](CC(N)=O)NC(=O)[C@H](Cc1c[nH]c2ccccc12)NC(=O)[C@@H]1CCCN1)[C@@H](C)O)C(C)C)C(=O)N[C@@H](CCC(N)=O)C(=O)N[C@@H](CCC(N)=O)C(=O)N[C@H](C(=O)N[C@@H](Cc1ccc(O)cc1)C(=O)N[C@@H](Cc1c[nH]cn1)C(=O)N[C@@H](C)C(=O)N[C@@H](Cc1c[nH]cn1)C(=O)O)[C@@H](C)O [UP3, PWNSATVLQQTYHAH]	approximately 24%	inhibited growth of endothelial cells	concentration-dependently inhibited the migration	81	–	47%	showed such plugs with excessive hemoglobin	28.6%	concentration-dependently inhibited; also recorded: significantly inhibition at concentration of 10 μM or above	reduced median value	4.8	hemoglobin amount / in vivo angiogenesis inhibition (words) (in vivo angiogenesis; listed as UP-3): decreased amount of hemoglobin
FGNGSAY [TP1, reference compound]	–	–	–	–	–	approximately 37%	showed such plugs with excessive hemoglobin	–	–	–	–	inhibition of migration of endothelial cells (HUVECs [2]; 100 μM): did not inhibit the migration of endothelial cells
PWCHVLKNRRLTWEY [TP7, PWCHVLKNRRLTWEY]	65.1%	inhibited growth of endothelial cells; also recorded: strong inhibition effect	concentration-dependently inhibited the migration	66.3	concentration-dependently inhibited proliferation	approximately 93%	did not exhibit such plugs	31.4%	concentration-dependently inhibited	decreased amount of hemoglobin	37.3	inhibition of proliferation of A549 cancer cells (words) ([4]; listed as TP-7): inhibited proliferation of cancer cells concentration-dependently; median value of hemoglobin amount reduced to (vs untreated control) (in vivo angiogenesis; without statistical significance): ~51%
